From EP1849783A1, “Octahydropentalene-substituted pyrazoline compounds, their preparation and use as medicaments” (LABORATORIOS DEL DR. ESTEVE, S.A., priority 2006, dated 2007)
Counter-ions that a name gives are not always drawn.

Assays:
cannabinoid receptors = assay: Mouse tetrad model, antagonistic activity against Win 55212-2; type: in vivo, Male NMRI mice; conditions: against Win 55212-2 (1.25 mg/kg intravenous), substance injected 5 minutes before the agonist, mice
Excerpt: Substances with affinity for cannabinoid receptors are known to produce a wide range of pharmacological effects. It is also known that intravenous administration of a substance with affinity for cannabinoid receptors in mice produces analgesia , hypothermia, sedation and catalepsy. Individually, none of these effects can be considered as proof that a tested substance has affinity for cannabinoid-receptors, since all of these effects are common for various classes of centrally active agents. However, substances, which show all of these effects, i.e. substances that are active in this so-called tetrad model are considered to have affinity for the cannabinoid receptors. It has further been shown that cannabinoid receptor antagonists are higly effective in blocking the effects of a cannabinoid agonist in the mouse tetrad model.
The tetrad model is described, for example, in the publication of A. C. Howlett et al, International Union of Pharmacology XXVII. Classification of Cannabinoid Receptors, Pharmacol Rev 54, 161-202, 2002 and David R. Compton et al., "In-vivo Characterization of a Specific Cannabinoid Receptor Antagonist (SR141716A) Inhibition of Tetrahydrocannbinol- induced Responses and Apparent Agonist Activity", J. Pharmacol. Exp. Ther. 277 , 2, 586-594, 1996. The corresponding parts of the description are hereby incorporated by reference. […]
Before testing in the behavioral procedures given below, mice are acclimatized to the experimental setting. Pre-Treatment control values are determined for analgesia hot plate latency (in seconds), rectal temperature, sedation and catalepsy.
In order to determine the agonistic activty of the substance to be tested, the mice are injected intravenously with the substance to be tested or the vehicle alone. 15 minutes after injection, latency in hot plate analgesia is measured. Rectal temperature, sedation and catalepsy are measured 20 minutes after injection.
In order to determine the antagonistic activity the identical procedure is used as for the determination of the agonistic effects, but with the difference that the substance to be evaluated for its antagonistic activity is injectected 5 minutes before the intravenous injection of 1.25 mg/kg Win-55,212 a known cannabinoid-receptor agonist.
The hot plate analgesia is determined according to the method described in Woolfe D. et al. "The evaluation of analgesic action of pethidine hydrochloride (Demerol)", J. Pharmacol. Exp. Ther. 80, 300-307,1944. […]
The mice are placed on a hot plate (Harvard Analgesimeter) at 55 ± 0.5 °C until they show a painful sensation by licking their paws or jumping and the time for these sensations to occur is recorded. This reading is considered the basal value (B). […]

[1] = biological target: T1, transfected human CB1 receptors (Homo sapiens, UniProt P21554); assay: in-vitro determination of affinity to CB1-Receptor (radioligand binding); conditions: transfected human CB1 receptors of Receptor Biology, Inc.; radioligand [^3H]-CP55940; read-out: CB1-Receptor Radiologand :[^3H]-CP55940 IC50
T1 construct: purchased Receptor Biology, Inc
T1 sequence (P21554 whole entry): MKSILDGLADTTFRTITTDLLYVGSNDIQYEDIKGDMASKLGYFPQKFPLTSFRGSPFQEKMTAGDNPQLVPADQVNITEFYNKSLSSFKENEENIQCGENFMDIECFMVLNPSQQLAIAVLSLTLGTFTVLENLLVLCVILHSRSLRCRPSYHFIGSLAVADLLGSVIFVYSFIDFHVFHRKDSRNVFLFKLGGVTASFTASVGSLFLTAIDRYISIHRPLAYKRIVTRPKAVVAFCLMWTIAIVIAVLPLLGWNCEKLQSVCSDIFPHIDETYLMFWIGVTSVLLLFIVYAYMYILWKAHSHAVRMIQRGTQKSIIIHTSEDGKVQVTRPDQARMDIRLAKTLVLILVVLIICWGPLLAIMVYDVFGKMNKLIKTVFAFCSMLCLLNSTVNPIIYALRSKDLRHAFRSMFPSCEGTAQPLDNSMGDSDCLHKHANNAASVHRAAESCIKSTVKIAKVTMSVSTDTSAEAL
Procedure: The in-vitro determination of the affinity of the inventive quaternary ammonium salts of substituted pyrazoline compounds to CB1/CB2-Rezeptors is carried out as described in the publication of Ruth A. Ross, Heather C. Brockie et al., "Agonist-inverse agonist characterization at CB1 and CB2 cannabinoid receptors of L-759633, L759656 and AM630", British Journal of Pharmacology, 126, 665-672, (1999), whereby the transfected human CB1 and CB2 receptors of Receptor Biology, Inc. are used. The radioligand used for both receptors is [^3H]-CP55940. The respective parts of the description are hereby incorporated by reference and forms part of the present disclosure.

| SMILES | Antagonistic Effect in (%) (cannabinoid receptors) | Antagonistic Effect in (%) (cannabinoid receptors; 1.25 mg/kg) | IC50 [1] |
| --- | --- | --- | --- |
| O=C(NN1CC2CCCC2C1)C1=NN(c2ccc(Cl)cc2Cl)C(c2ccc(Br)cc2)C1 (stereo not shown) [Example 4, 5-(4-bromophenyl)-1-(2,4-dichlorophenyl)-N-(hexahydrocyclopenta[c]pyrrol-2(1H)-yl)-4,5-dihydro-1H-pyrazole-3-carboxamide] | 121 ± 4% | – | – |
| O=C(NN1CC2CCCC2C1)C1=NN(c2ccc(Cl)cc2Cl)C(c2ccc(Cl)cc2)C1 (stereo not shown) [Example 1, 5-(4-chlorophenyl)-1-(2,4-dichlorophenyl)-N-(hexahydrocyclopenta[c]pyrrol-2(1H)-yl)-4,5-dihydro-1H-pyrazole-3-carboxamide] | – | 122 ± 4% | 12.6 nM |
| O=C(NN1CC2CCCC2C1)C1=NN(c2ccc(Cl)cc2Cl)C(c2ccc(Cl)cc2)C1 (stereo not shown) [1 (HCl)] | – | 117 ± 3% | 70.8 nM |
| O=C(NN1CC2CCCC2C1)C1=NN(c2ccc(Cl)cc2Cl)[C@@H](c2ccc(Cl)cc2)C1 (stereo partly drawn) [Example 2, (R)-5-(4-chlorophenyl)-1-(2,4-dichlorophenyl)-N-(hexahydrocyclopenta[c]pyrrol-2(1H)-yl)-4,5-dihydro-1H-pyrazole-3-carboxamide] | 125.9% | – | 15.8 nM |
